Measurements as given in US20070264198A1, “TUMOR NECROSIS AGENT” (Ajinomoto Co., Inc., priority 2001, published 2007).
Counter-ions that a name gives are not always drawn.

Experiments:
[1] = tested on: arteriole supplying nutrients to the tumor / tumor blood flow (SLC tumor); test: Biomicroscopic observation of the change of tumor microcirculation; type: in vivo, rat; conditions: intravenous 10 mg/kg
Method: (§1) Donryu rats (Crj-Donryu; supplied by Charles River Japan, Inc.), male.
(§2) Rat lung carcinoma, Sato lung carcinoma (SLC)
(§3) MTPVS powder was dissolved in physiological saline to a final concentration of 10 mg/ml. The solution (10 mg/kg) was administered through the tail vein of rats. Pentobarbital salt (Nembutal; manufactured by Abbott Laboratories) and enflurane (Ethrane; manufactured by Abbott Laboratories) was used as an anesthesia. Pentobarbital was intramuscularly administered at a dose of 25 mg/kg, 10 minutes prior to the experiment, and a suitable amount thereof was additionally administered at intervals of 90 minutes to maintain anesthesia during the experiment. The concentration of enflurane was maintained at 1% (1 L/min) using an anesthesia device for small animals.
The change of the tumor blood flow (hereinafter referred to as “TBF”) was observed through a biomicroscope. The dorsal skin of the rat was held with a transparent chamber under sterile conditions, and a small fragment of tumor was implanted thereon. After the tumor started to grow thereto, the rat was tested as described in Jpn. J. Cancer Res. 81: 279-288, 1990, which is incorporated herein by reference. The chamber comprises two titanium flames of the same shape each having a circular quartz glass window with a thickness of 300 μm. After anesthesia, the rat with the chamber was put on a stage heated at 34.5° C. in the microscope.
MTPVS used in a test group was administered through the tail vein by infusion pump. […] and histological changes of tumor were directly observed through an optical microscope (Eclipse E800; manufactured by Nikon Corporation) with an eye lens of 10× and an object glass of 2× to 20×. The blood vessels of tumor in the chamber were visualized with a halogen lump of 12 V and 100 W. The images of the microscope were recorded using a CCD video camera (CS-900; manufactured by Olympus Corporation), a television monitor and an S-VHS video recorder.
At this time, in the blood vessel on the peripheral portion of the tumor, the plasma concentration was decreased, and large quantities of red blood cells were retained. These red blood cells were hemolyzed within 2 to 3 hours after MTPVS administration to form clog.
An inserted section on the left upper portion in FIG. 4 is an enlarged view of the blood vessels on the peripheral portion of the tumor. FIGS. 1 to 4 are based on photographs taken (length of a bar: 500 μm) by using an eye lens of 10× and an object glass of 4×. The inserted section is based on a photograph taken (length of a bar: 50 μm) by using an eye lens of 10× and an object glass of 20×.

[2] = tested on: Sato lung carcinoma (SLC); test: Anti-tumor effect against tumor grown in the transparent chamber; type: in vivo, rat; conditions: 10 mg/kg, tail vein, Donryu rats; state maintained for 48 hours after treatment
Method: as §1, §2, §3
The change of the tumor blood flow (hereinafter referred to as “TBF”) was observed through a biomicroscope. The dorsal skin of the rat was held with a transparent chamber under sterile conditions, and a small fragment of tumor was implanted thereon. […]
MTPVS used in a test group was administered through the tail vein by infusion pump. […] The blood vessels of tumor in the chamber were visualized with a halogen lump of 12 V and 100 W. The images of the microscope were recorded using a CCD video camera (CS-900; manufactured by Olympus Corporation), a television monitor and an S-VHS video recorder. […]

COc1ccc(/C=C\c2cc(OC)c(OC)c(OC)c2)cc1NC(=O)[C@@H](N)CO [MTPVS, (Z)-N-[2-methoxy-5-[2-(3,4,5-trimethoxyphenyl)vinyl]phenyl]-L-serinamide hydrochloride]
restoration of tumor blood flow after clog and hemolysis [1]: no longer restored
time at which tumor blood flow stopped almost completely ([1]; after administration): 30 min
time to hemolysis of retained red blood cells in blood vessel on peripheral portion of the tumor (clog formation) ([1]; after administration): 2 to 3 hours
blood vessel structure in the normal tissues ([1]; normal tissues): maintained as normal
contraction of the arteriole supplying nutrients to the tumor ([1]; rat SLC tumor in transparent chamber): markedly contracted
time to necrosis of SLC tumor grown in the transparent chamber [2]: ≤ 25 h
